Laboratory results as given in patent US8362052B2, “Isoindolin-1-one derivative” (MSD K.K., priority 2009, dated 2013).

Molecular target: T1, human GPR120 (Homo sapiens, UniProt Q5NUL3)
T1 construct: expressed in transfected cells
T1 sequence (Q5NUL3 1-361): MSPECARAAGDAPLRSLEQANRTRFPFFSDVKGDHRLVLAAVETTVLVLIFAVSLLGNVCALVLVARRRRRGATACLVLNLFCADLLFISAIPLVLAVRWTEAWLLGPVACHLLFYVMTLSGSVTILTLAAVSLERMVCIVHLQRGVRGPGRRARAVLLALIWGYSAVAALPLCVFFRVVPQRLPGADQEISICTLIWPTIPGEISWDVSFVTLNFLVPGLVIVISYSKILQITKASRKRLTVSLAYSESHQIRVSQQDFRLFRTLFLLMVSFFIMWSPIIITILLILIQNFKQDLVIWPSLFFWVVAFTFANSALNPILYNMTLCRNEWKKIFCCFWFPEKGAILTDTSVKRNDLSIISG
Assay: Measurement of intracellular calcium concentration (FLIPR), GPR120 agonist action
Assay type: cell-based
Conditions: human GPR120 expression CHO cells, Fluo-4 AM
Description: Primers were synthesized in the domains on the opposite sides of the base sequences of the ORFs of the known GPCR and GPR120 in GenBank Accession NOs. NM 181745 (human) and NM 181748 (mouse), and the genes were cloned by RT-PCR. The base sequences of the primers used are described below. The restriction enzymes, BamHI and EcoRI, recognition sites were introduced for subcloning, respectively.
Using Lipofectamine 2000 (Invitrogen), cDNA of GPR120 receptor was transfected into CHO/NFAT-BLA cells, and drug-resistant cells were isolated to obtain GPR120 stable expression strains. The GPR120-expressed CHO cells were cultured in DMEM/F12 medium containing 10% fetal bovine serum, 100 units/ml penicillin, 0.1 mg/ml streptomycin sulfate, 250 μg/ml Zeocin, 500 μg/mL Geneticin and 15 mM HEPES.
On the day before the measurement day, 4 μM Fluo-4 AM (fluorescence calcium indicator reagent) was incubated to be introduced into the human GPR120 expression CHO cells plated at 20000 cells per well of a 96-well black plate (ViewPlate; Packard) in the presence of 2.5 mM probenecid in a CO2 incubator for 1 hour. […] Variations in the intracellular calcium concentration were measured by Fluorescence Imaging Plate Reader (FLIPR; Molecular Devices) to examine the agonist action, and EC50 values were calculated.

Row | EC50 [nM] | SMILES
1 | 180 | O=S1(=O)c2ccccc2CN1c1cc(F)cc(Oc2cccnc2)c1 [Example 2, 2-[3-fluoro-5-(pyridin-3-yloxy)phenyl]-2,3-dihydro-1,2-benzisothiazol-1,1-dioxide]
2 | 850 | O=C1c2ccccc2CN1c1cc(F)cc(Oc2cccnc2)c1 [Example 1, 2-[3-fluoro-5-(pyridin-3-yloxy)phenyl]isoindolin-1-one]
